Literature values as cited in US9150734B2, “Zwitterionic lignin derivatives for marine antifouling coatings” (Empire Technology Development LLC, priority 2012, dated 2015).

Test system: diatom species
Details: variety of diatom species, various concentrations; variation between species

Substance: benzalkonium chloride
- concentration at which all diatoms were killed: less than 0.001%
